The record followed here is PubChem BioAssay (NCI).

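Grown in 96-well plates, cells were treated for 48 hours with each compound at five concentrations. Insufficient inhibition: endpoint recorded as highest concentration tested. Here, GI50 denotes the concentration required for 50% inhibition of growth. TGI denotes the concentration required for complete inhibition of growth.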

Test systems include UO-31 renal; MDA-MB-231 breast; A498 renal; UACC-62 melanoma; K-562 leukemia; MOLT-4 leukemia; SNB-19 CNS; MALME-3M melanoma; OVCAR-4 ovarian; SR leukemia.
Common to all, as to experiment: NCI tumour cell line growth inhibition, 48 h

As for `COc1ccc(/C=C/C2=NN(c3cccc(S(=O)(=O)O)c3)C3(C2)SCC(=O)N3c2nc3ccccc3s2)cc1` (stereo unspecified), the TGI with UO-31 renal, in the test on MDA-MB-231 breast, in the test on A498 renal, in the test with UACC-62 melanoma, in the test on K-562 leukemia and in the test with MOLT-4 leukemia was greater than 100 µM each time. For the same compound, the TGI in the test on SNB-19 CNS, in the test on MALME-3M melanoma, in the test with OVCAR-4 ovarian and with SR leukemia was greater than 100 µM throughout.
For the compound `O=[N+]([O-])c1ccc(O)c(/C=N/NC(=S)N2CCCCC2)c1`, the TGI was 4.58 µM in the test on UO-31 renal; 52.2 µM with MDA-MB-231 breast; greater than 44.2 µM with A498 renal; greater than 30.5 µM in the test with UACC-62 melanoma; greater than 100 µM in the test with K-562 leukemia; greater than 44.4 µM with MOLT-4 leukemia. Also, the TGI in the test with SNB-19 CNS is greater than 53.6 µM; with MALME-3M melanoma it was 10.3 µM; with OVCAR-4 ovarian it was 50.7 µM; with SR leukemia it was greater than 70.2 µM.
For the compound `COc1cc(-c2ccccc2N)c2cccnc2c1OC`, the TGI in the test on UO-31 renal was determined as 15 µM; in the test on MDA-MB-231 breast it was 20.6 µM; with A498 renal, 27.2 µM; with UACC-62 melanoma it was 24.2 µM; in the test with K-562 leukemia, 20.5 µM; with MOLT-4 leukemia, 7.94 µM. For the same compound, the TGI in the test on SNB-19 CNS was 18.6 µM; with MALME-3M melanoma, 30.4 µM; in the test with OVCAR-4 ovarian, 19.6 µM; in the test on SR leukemia, 7.25 µM.
Regarding `C(=C\N1CCCCC1)/c1nnnn1-c1ccccc1`, the TGI in the test on UO-31 renal is greater than 100 µM; in the test with MDA-MB-231 breast it was 61.6 µM; in the test with A498 renal it was greater than 100 µM; in the test on UACC-62 melanoma, 54.5 µM; in the test on K-562 leukemia, greater than 100 µM; in the test on MOLT-4 leukemia, 41.9 µM. The TGI in the test on SNB-19 CNS was greater than 100 µM; in the test with MALME-3M melanoma it was greater than 100 µM; with OVCAR-4 ovarian, greater than 100 µM; with SR leukemia, 55 µM.
Regarding `CCN(CC)c1ccc2cc(C(=O)Nc3ccccn3)c(=N)oc2c1`, the TGI with MDA-MB-231 breast is greater than 100 µM; with A498 renal, greater than 100 µM; in the test on UACC-62 melanoma, greater than 100 µM; in the test on K-562 leukemia, greater than 100 µM; in the test on MOLT-4 leukemia, greater than 100 µM; with SNB-19 CNS, 76.2 µM. In addition, the TGI with MALME-3M melanoma, in the test on OVCAR-4 ovarian and with SR leukemia was greater than 100 µM each time.
With `O=C1c2cn[nH]c2C(c2ccccc2)N1c1ccccc1` (stereo unspecified), the TGI with UO-31 renal, in the test with MDA-MB-231 breast, with A498 renal, in the test on UACC-62 melanoma, in the test on MOLT-4 leukemia and in the test with SNB-19 CNS was greater than 10 µM each time. Further, the TGI in the test on MALME-3M melanoma, in the test on OVCAR-4 ovarian and in the test on SR leukemia was greater than 10 µM each time.
With `Oc1[nH]c2ccccc2c1/C=c1/cc2c(c(-c3ccc(F)cc3)n1)=Nc1ccccc1-2`, the GI50 in the test on UO-31 renal is 0.353 µM; in the test on MDA-MB-231 breast, 0.609 µM; in the test on A498 renal, 0.309 µM; in the test with K-562 leukemia, 0.435 µM; with MOLT-4 leukemia, 2.17 µM; with SNB-19 CNS, 1.43 µM. In addition, the GI50 is 0.843 µM in the test on MALME-3M melanoma and 0.306 µM in the test on SR leukemia. Further, the TGI stood at 2.21 µM in the test with UO-31 renal; 2.39 µM with MDA-MB-231 breast; 1.85 µM with A498 renal; 3.55 µM in the test with K-562 leukemia; 5.41 µM in the test with MOLT-4 leukemia; 32.6 µM in the test on SNB-19 CNS. For the same compound, the values for the TGI in the test on MALME-3M melanoma and in the test with SR leukemia were 2.26 µM and 2.49 µM, respectively.
Turning to `COc1cc2nc(-c3cccs3)[nH]c(=O)c2cc1OC`, the TGI with UO-31 renal, with MDA-MB-231 breast, in the test on A498 renal, in the test with UACC-62 melanoma, with K-562 leukemia and in the test on SNB-19 CNS was greater than 100 µM throughout. Further, the TGI in the test with MALME-3M melanoma was greater than 100 µM; with OVCAR-4 ovarian it was greater than 100 µM; with SR leukemia it was 58.4 µM.
As for `COc1ccc(-n2sc3ncccc3c2=O)cc1`, the TGI in the test with UO-31 renal is 33.7 µM; in the test with MDA-MB-231 breast, 45.1 µM; in the test on UACC-62 melanoma, greater than 100 µM; in the test on MOLT-4 leukemia, greater than 100 µM; in the test on SNB-19 CNS it was greater than 100 µM; with MALME-3M melanoma, 30.9 µM. The TGI in the test with OVCAR-4 ovarian was greater than 100 µM; with SR leukemia it was 55.1 µM.
For `CC(C)(C)N(Cc1ccc2c(c1)OCO2)C(=O)/C=C\Sc1ccccc1`, the TGI in the test on UO-31 renal, in the test with MDA-MB-231 breast, in the test on A498 renal, in the test with UACC-62 melanoma, in the test on K-562 leukemia and with MOLT-4 leukemia was greater than 100 µM throughout. Also, the TGI in the test on SNB-19 CNS, in the test with OVCAR-4 ovarian and in the test with SR leukemia was greater than 100 µM each time.
For the compound `CNc1ncc(-c2nnnn2-c2ccccc2)c(CN(C)C)n1`, the TGI in the test on UO-31 renal, with MDA-MB-231 breast, in the test with A498 renal, in the test on UACC-62 melanoma, in the test with K-562 leukemia and in the test on MOLT-4 leukemia was greater than 100 µM each time. Also, the TGI with SNB-19 CNS, in the test on MALME-3M melanoma and with SR leukemia was greater than 100 µM each time.
As for `CCOC(=O)Cc1nc2c(N)ncnc2n1C1OC(COC(C)=O)C(OC(C)=O)C1OC(C)=O` (stereo unspecified), the TGI in the test with UO-31 renal, with MDA-MB-231 breast, in the test with A498 renal, with UACC-62 melanoma, in the test on K-562 leukemia and with MOLT-4 leukemia was greater than 100 µM throughout. Besides, the TGI in the test with SNB-19 CNS, in the test with MALME-3M melanoma and with SR leukemia was greater than 100 µM in each case.
For the compound `N#C[C@H](c1nc2ccccc2s1)c1nc2ccccc2nc1Cl`, the TGI in the test with UO-31 renal is 52 µM; with MDA-MB-231 breast, greater than 100 µM; with A498 renal, greater than 100 µM; with UACC-62 melanoma, 31.4 µM; in the test on MOLT-4 leukemia, greater than 100 µM; in the test on SNB-19 CNS, greater than 100 µM. The TGI in the test with MALME-3M melanoma was greater than 100 µM; in the test with OVCAR-4 ovarian, 34.1 µM; with SR leukemia it was greater than 100 µM.
In the case of `C[C@@H]1S[C@H](c2c(Cl)cccc2Cl)N2Cc3ccccc3N=C12`, the TGI in the test with UO-31 renal, in the test with MDA-MB-231 breast, with A498 renal, with UACC-62 melanoma, with K-562 leukemia and in the test with MOLT-4 leukemia was greater than 100 µM in each case. Besides, the TGI in the test with SNB-19 CNS, in the test on OVCAR-4 ovarian and with SR leukemia was greater than 100 µM in each case.
